Earlier results on 63 compounds are cited in Sander's compilation of Henry's law constants.

“And” between values parts separate entries of the source, which are not always exact repeats. Equal entries are not always repeated.

The nature of this series: Henry solubility constant Hcp at 298.15 K (mol/(m3 Pa)). As to conditions: cited value.
Setting [1] is: reference: Barcelo and Hennion (1997).
Where [2] appears, read: reference: Fogg and Sangster (2003).
Where [3] appears, read: reference: Mackay et al. (1992b).
Where [4] appears, read: reference: Burkholder et al. (2015).
Where [5] appears, read: reference: Burkholder et al. (2019).
The mark [6] stands for this setting: reference: Gaffney and Senum (1984).
The mark [7] stands for this setting: reference: Sander et al. (2006).
Where [8] appears, read: reference: Sander et al. (2011).
The mark [9] stands for this setting: reference: Schwartz and White (1981).
[10] abbreviates: reference: Plyasunov et al. (2006).

For the compound `C=C(C)C(=O)OC` [methyl methacrylate], the “Henry solubility constant Hcp” value (reference: Brockbank (2013)) was 0.029.

Regarding `CCC(=O)OC` [methyl propanoate], the “Henry solubility constant Hcp” value (reference: Brockbank (2013)) is 0.058.

For the compound `Cc1ccccc1` [methylbenzene], the “Henry solubility constant Hcp” value was 0.0019 (reference: Brockbank (2013)), 0.0015 (reference: Goldstein (1982)) and 0.0015 (reference: McAuliffe (1971)).

Consider `CC1CCCCC1` [methylcyclohexane], for which the “Henry solubility constant Hcp” value (reference: Brockbank (2013)) is 2.6e-05.

Take `CC1CCCC1` [methylcyclopentane]: the “Henry solubility constant Hcp” value (reference: Brockbank (2013)) was 2.8e-05.

With `COP(=S)(OC)Oc1ccc([N+](=O)[O-])cc1` [methylparathion], the “Henry solubility constant Hcp” value under setting [1] is 0.47.

For `CCc1cccc(C)c1N(C(=O)CCl)C(C)COC` (stereo unspecified) [metolachlor], the “Henry solubility constant Hcp” value by setting is: under setting [1], 11; under setting [2], 620; (reference: Muir et al. (2004)) 750 and 720; (reference: Rice et al. (1997b)) 1200.

With `COc1ccc(NC(=O)N(C)C)cc1Cl` [metoxuron], the “Henry solubility constant Hcp” value under setting [1] was 6.6.

In the case of `c1ccc2cc3cc4ccccc4cc3cc2c1` [naphthacene], the “Henry solubility constant Hcp” value under setting [3] was 250.

Consider `c1ccc2ccccc2c1` [naphthalene], for which the “Henry solubility constant Hcp” value (reference: Brockbank (2013)) is 0.021, the “Henry solubility constant Hcp” value under setting [2] is 0.022, the “Henry solubility constant Hcp” value (reference: Goldstein (1982)) was 0.021 and the “Henry solubility constant Hcp” value (reference: McCarty (1980)) was 0.027.

In the case of `[Ne]` [neon], the “Henry solubility constant Hcp” value (reference: Clever (1979a)) is 4.5e-06.

`O=[N+]([O-])c1ccccc1` [nitrobenzene]: the “Henry solubility constant Hcp” value reads like this: (reference: Brockbank (2013)) 0.47; (reference: Goldstein (1982)) 0.47; (reference: Mackay et al. (1995)) 0.75.

As for `CC[N+](=O)[O-]` [nitroethane], the “Henry solubility constant Hcp” value is, setting by setting: (reference: Brockbank (2013)) 0.21; under setting [4], 0.21; under setting [5], 0.21; under setting [6], 0.21; under setting [7], 0.21; under setting [8], 0.21.

In the case of `[O]N=O` [nitrogen dioxide], the “Henry solubility constant Hcp” value under setting [4] is 0.00012; the “Henry solubility constant Hcp” value under setting [5] was 0.00012; the “Henry solubility constant Hcp” value under setting [7] was 0.00014; the “Henry solubility constant Hcp” value under setting [8] is 0.00012; the “Henry solubility constant Hcp” value under setting [9] is 0.00012.

With `[N]=O` [nitrogen monoxide], the “Henry solubility constant Hcp” value by setting is: (reference: Loomis (1928)) 1.9e-05; under setting [7], 1.9e-05; under setting [8], 1.9e-05; under setting [9], 1.9e-05; (reference: Young (1981b)) 1.9e-05.

In the case of `ClN(Cl)Cl` [nitrogen trichloride], the “Henry solubility constant Hcp” value under setting [4] was 0.00099, the “Henry solubility constant Hcp” value under setting [5] is 0.00099, the “Henry solubility constant Hcp” value under setting [7] is 0.00099 and the “Henry solubility constant Hcp” value under setting [8] is 0.00099.

As to `FN(F)F` [nitrogen trifluoride], the “Henry solubility constant Hcp” value is 7.9e-06 under setting [4], 7.9e-06 under setting [5] and 7.9e-06 under setting [8].

Take `O=NCl` [nitrosyl chloride]: the “Henry solubility constant Hcp” value runs as follows: under setting [4], over 0.00049; under setting [5], over 0.00049.

On to `O=NO` [nitrous acid], for which, under setting [9], the “Henry solubility constant Hcp” value was 0.48.

Consider `CCCCCCCCC=O` [nonanal], for which the “Henry solubility constant Hcp” value (reference: Brockbank (2013)) was 0.011.

With `CCCCCCCCC` [nonane], where the note is “reference: Brockbank (2013)”, the “Henry solubility constant Hcp” value is 2.3e-06.

Take `CCCCCCCCCc1ccccc1` [nonylbenzene]: for the setting “reference: Brockbank (2013)”, the “Henry solubility constant Hcp” value is 0.00014.

With `CCCCCCCC` [octane], the “Henry solubility constant Hcp” value (reference: Brockbank (2013)) was 3.4e-06.

For `CCCCCCCC#N` [octanenitrile], the “Henry solubility constant Hcp” value under setting [10] was 0.057.

As to `CCCCCCCCc1ccccc1` [octylbenzene], under “reference: Brockbank (2013)”, the “Henry solubility constant Hcp” value is 0.00018.

For `CNC(=O)ON=C(SC)C(=O)N(C)C` [oxamyl], under setting [1], the “Henry solubility constant Hcp” value is 38.

Consider `O=CC(=O)O` [oxoethanoic acid], for which the “Henry solubility constant Hcp” value under setting [8] was 110.

With `O=[O+][O-]` [ozone], the “Henry solubility constant Hcp” value runs as follows: (reference: Biń (2005)) 7.6e-05; under setting [4], 0.0001; under setting [5], 0.0001; (reference: Perry and Chilton (1973)) 0.00012; under setting [7], 0.0001; under setting [8], 0.0001. In addition, the “Henry solubility constant Hcp” value (reference: Warneck (2003)) is 0.00011.

On to `CCOP(=S)(OCC)Oc1ccc([N+](=O)[O-])cc1` [parathion], for which the “Henry solubility constant Hcp” value is 0.8 under setting [1] and 33 (reference: MacBean (2012b)).

With `CCCCN(CC)C(=O)SCCC` [pebulate], the “Henry solubility constant Hcp” value under setting [1] is 0.00084.

On to `CCC(CC)Nc1c([N+](=O)[O-])cc(C)c(C)c1[N+](=O)[O-]` [penoxaline], for which the “Henry solubility constant Hcp” value under setting [1] is 0.0026.

As for `ClC(Cl)C(Cl)(Cl)Cl` [pentachloroethane], the “Henry solubility constant Hcp” value by setting is: (reference: Brockbank (2013)) 0.0042; under setting [5], 0.0041.

On to `CCCCC=O` [pentanal], for which, for the setting “reference: Brockbank (2013)”, the “Henry solubility constant Hcp” value is 0.066.

In the case of `CCCCC` [pentane], the “Henry solubility constant Hcp” value (reference: Brockbank (2013)) was 7.2e-06.

Take `N#CCCCC#N` [pentanedinitrile]: under setting [10], the “Henry solubility constant Hcp” value is 780.

`O=C(O)CCCC(=O)O` [pentanedioic acid]: the “Henry solubility constant Hcp” value reads like this: under setting [4], 3.8e+07; under setting [5], 3.8e+07.

Consider `CCCCC#N` [pentanenitrile], for which the “Henry solubility constant Hcp” value is 0.16 (reference: Brockbank (2013)) and 0.14 under setting [10].

Consider `CCCCCOC(=O)CCC` [pentyl butanoate], for which the “Henry solubility constant Hcp” value (reference: Brockbank (2013)) is 0.017.

As to `CCCCCOC(C)=O` [pentyl ethanoate], the “Henry solubility constant Hcp” value is, setting by setting: (reference: Brockbank (2013)) 0.025; (reference: Meynier et al. (2003)) 0.025.

Take `CCCCCOC=O` [pentyl methanoate]: where the note is “reference: Brockbank (2013)”, the “Henry solubility constant Hcp” value was 0.017.

For `CCCCCc1ccccc1` [pentylbenzene], the “Henry solubility constant Hcp” value (reference: Brockbank (2013)) is 0.0006.

As to `CC(=O)O[O]` [peroxyacetyl radical], the “Henry solubility constant Hcp” value by setting is: under setting [4], under 0.00099; under setting [5], under 0.00099; under setting [7], under 0.00099; under setting [8], under 0.00099.

`c1cc2cccc3c4cccc5cccc(c(c1)c23)c54` [perylene]: the “Henry solubility constant Hcp” value under setting [3] is 330.

On to `c1ccc2c(c1)ccc1ccccc12` [phenanthrene], for which the “Henry solubility constant Hcp” value is, setting by setting: (reference: Brockbank (2013)) 0.34; under setting [2], 0.23; (reference: Goldstein (1982)) 0.093; (reference: McCarty (1980)) 0.076.

`COC(=O)Nc1cccc(OC(=O)Nc2cccc(C)c2)c1` [phenmedipham]: the “Henry solubility constant Hcp” value under setting [1] was 120000.

On to `CC(C)=CC1C(C(=O)OCc2cccc(Oc3ccccc3)c2)C1(C)C` (stereo unspecified) [phenothrin], for which the “Henry solubility constant Hcp” value (reference: MacBean (2012b)) is 1.5.

On to `CC(=O)Oc1ccccc1` [phenyl ethanoate], for which, where the note is “reference: Brockbank (2013)”, the “Henry solubility constant Hcp” value is 1.3.

As to `CCOP(=S)(OCC)SCSCC` [phorate], the “Henry solubility constant Hcp” value under setting [1] is 0.015.

On to `COP(=S)(OC)SCN1C(=O)c2ccccc2C1=O` [phosmet], for which the “Henry solubility constant Hcp” value under setting [1] is 10.

With `Nc1c(Cl)c(Cl)nc(C(=O)O)c1Cl` [picloram], the “Henry solubility constant Hcp” value under setting [1] was 290.

As for `COc1nc(NC(C)C)nc(NC(C)C)n1` [prometone], the “Henry solubility constant Hcp” value under setting [1] is 110.

On to `CSc1nc(NC(C)C)nc(NC(C)C)n1` [prometryn], for which the “Henry solubility constant Hcp” value under setting [1] is 20.

Turning to `CC(C)N(C(=O)CCl)c1ccccc1` [propachlor], under setting [1], the “Henry solubility constant Hcp” value was 0.9.

Consider `CCOC(=O)CC(=O)OCC` [propanedioic acid, diethyl ester], for which the “Henry solubility constant Hcp” value (reference: Brockbank (2013)) was 3.9.

As for `CC(C)=O` [propanone], the “Henry solubility constant Hcp” value is, setting by setting: (reference: Brockbank (2013)) 0.29; under setting [4], 0.27; under setting [5], 0.27; (reference: Butler and Ramchandani (1935)) 0.3; (reference: Cabani et al. (1981)) 0.27; under setting [2], 0.26. The “Henry solubility constant Hcp” value under setting [6] was 0.3; the “Henry solubility constant Hcp” value (reference: Hine and Weimar (1965)) is 0.031; the “Henry solubility constant Hcp” value (reference: Poulain et al. (2010)) was 0.33; the “Henry solubility constant Hcp” value under setting [7] is 0.28; the “Henry solubility constant Hcp” value under setting [8] is 0.27; the “Henry solubility constant Hcp” value (reference: Schaffer and Daubert (1969)) is 0.22.

Turning to `CC(C)Nc1nc(Cl)nc(NC(C)C)n1` [propazine], the “Henry solubility constant Hcp” value under setting [1] was 99.

For the compound `C=CC=O` [propenal], the “Henry solubility constant Hcp” value runs as follows: (reference: Brockbank (2013)) 0.072; under setting [6], 0.081; (reference: Goldstein (1982)) 0.1; (reference: Howard (1989)) 2.2.

On to `C=CC` [propene], for which, where the note is “reference: Deno and Berkheimer (1960)”, the “Henry solubility constant Hcp” value is 9.2e-05.

Turning to `CCCC1COC(Cn2cncn2)(c2ccc(Cl)cc2Cl)O1` (stereo unspecified) [propiconazole], under setting [1], the “Henry solubility constant Hcp” value was 24.

`CNC(=O)Oc1ccccc1OC(C)C` [propoxur]: the “Henry solubility constant Hcp” value under setting [1] was 0.076.

With `CCCOC(=O)CCC` [propyl butanoate], the “Henry solubility constant Hcp” value (reference: Brockbank (2013)) was 0.018.

For the compound `CCCOC(C)=O` [propyl ethanoate], under “reference: Brockbank (2013)”, the “Henry solubility constant Hcp” value is 0.044.

As to `CCCOC=O` [propyl methanoate], the “Henry solubility constant Hcp” value reads like this: (reference: Brockbank (2013)) 0.031; under setting [4], 0.026; under setting [5], 0.026; under setting [8], 0.026.
